Ends that are not written are not given here.
Assays:
[1] = system: HIV-1 92TH009 (subtype A/E, R5); test: Inhibition of HIV-1 clinical strain infection of M7 cells, p24 antigen ELISA; format: cell-based
Description: (§1) Inhibition activities of peptides on infection by HIV-1 clinical strains were determined as previously described. For inhibition of HIV-1 92TH009 (subtype A/E, R5) and 92UG024 (subtype D, X4) infection,100 TCID50 of the virus was added to 1 × 10^5/ml M7 cells in RPMI 1640 medium containing 10% FBS in the presence or absence of the test peptide overnight. Then, the culture supernatants were changed to fresh media. On the fourth day post-infection, culture supernatants were collected for detection of p24 antigen by ELISA. The percent inhibition of p24 production was calculated using the computer program Calcusyn.

[2] = system: T20-resistant strain N42T, N43K; format: cell-based, HIV-1; settings: triplicate, repeated twice, mean ± SD, read-out: IC50 (nM) against N42T, N43K
Description: (§2) Table 2 Inhibitory activities of CP, CP-IDL and T20 against T2635 or T20 resistant strains. | column: IC50 (nM) of / CP; IC50 (nM) of / CP-IDL; IC50 (nM) of / T20

[3] = system: WT (T2635-resistant strain panel); format: cell-based, HIV-1; settings: triplicate, repeated twice, mean ± SD, read-out: IC50 (nM) against WT
Description: as §2

[4] = system: T2635-resistant strain N126K; format: cell-based, HIV-1; settings: triplicate, repeated twice, mean ± SD, read-out: IC50 (nM) against N126K
Description: as §2

[5] = system: WT (T20-resistant strain panel); format: cell-based, HIV-1; settings: triplicate, repeated twice, mean ± SD, read-out: IC50 (nM) against WT
Description: as §2

[6] = system: T2635-resistant strain Q66R, N126K; format: cell-based, HIV-1; settings: triplicate, repeated twice, mean ± SD, read-out: IC50 (nM) against Q66R, N126K
Description: as §2

[7] = system: T2635-resistant strain K154Q; format: cell-based, HIV-1; settings: triplicate, repeated twice, mean ± SD, read-out: IC50 (nM) against K154Q
Description: as §2

[8] = system: T2635-resistant strain N113E; format: cell-based, HIV-1; settings: triplicate, repeated twice, mean ± SD, read-out: IC50 (nM) against N113E
Description: as §2

CRF02_AG clone 242 = format: cell-based, HIV-1; settings: subtype AG, R5, Tier 1; triplicate, repeated twice, mean ± SD; read-out: IC50 (nM) against CRF02_AG clone 242
Description: (§3) Table 1 Inhibitory activities of CP, CP-IDL and T20 against HIV-1 pseudovirus. | column: IC50 (nM) of / CP; IC50 (nM) of / CP-IDL; IC50 (nM) of / T20

MJ412.W0M.ENV.B1 = format: cell-based, HIV-1; settings: subtype C; triplicate, repeated twice, mean ± SD; read-out: IC50 (nM) against MJ412.W0M.ENV.B1
Description: as §3

BG505.W6M.ENV.C2 = format: cell-based, HIV-1; settings: subtype A; triplicate, repeated twice, mean ± SD; read-out: IC50 (nM) against BG505.W6M.ENV.C2
Description: as §3

ZM109F.PB4 = format: cell-based, HIV-1; settings: subtype C, R5; triplicate, repeated twice, mean ± SD; read-out: IC50 (nM) against ZM109F.PB4
Description: as §3

CRF02_AG clone 33 = format: cell-based, HIV-1; settings: subtype AG, R5, Tier 3; triplicate, repeated twice, mean ± SD; read-out: IC50 (nM) against CRF02_AG clone 33
Description: as §3

SF162.LS = format: cell-based, HIV-1; settings: subtype B, R5, Tier 1; triplicate, repeated twice, mean ± SD; read-out: IC50 (nM) against SF162.LS
Description: as §3

BJ412.W6M.ENV.S3 = format: cell-based, HIV-1; settings: subtype C; triplicate, repeated twice, mean ± SD; read-out: IC50 (nM) against BJ412.W6M.ENV.S3
Description: as §3

B1206.W6P.ENV.A1 = format: cell-based, HIV-1; settings: subtype A; triplicate, repeated twice, mean ± SD; read-out: IC50 (nM) against B1206.W6P.ENV.A1
Description: as §3

CRF02_AG clone 278 = format: cell-based, HIV-1; settings: subtype AG, R5, Tier 3; triplicate, repeated twice, mean ± SD; read-out: IC50 (nM) against CRF02_AG clone 278
Description: as §3

CRF02_AG/A1 clone 280 = format: cell-based, HIV-1; settings: subtype AG/A1, R5, Tier 2; triplicate, repeated twice, mean ± SD; read-out: IC50 (nM) against CRF02_AG/A1 clone 280
Description: as §3

pCH119 env = format: cell-based, HIV-1; settings: subtype BC, R5, Tier 2; triplicate, repeated twice, mean ± SD; read-out: IC50 (nM) against pCH119 env
Description: as §3

[9] = system: HIV-1 92UG024 (subtype D, X4); format: cell-based
Description: as §1

Sequence	IC50 [2] [nM]	IC50 [3] [nM]	IC50 [4] [nM]	IC50 [5] [nM]	IC50 [6] [nM]	IC50 [7] [nM]	IC50 [8] [nM]	IC50 (CRF02_AG clone 242) [nM]	IC50 (MJ412.W0M.ENV.B1) [nM]	IC50 (BG505.W6M.ENV.C2) [nM]	IC50 (ZM109F.PB4) [nM]	IC50 (CRF02_AG clone 33) [nM]	IC50 (SF162.LS) [nM]	IC50 (BJ412.W6M.ENV.S3) [nM]	IC50 (B1206.W6P.ENV.A1) [nM]	IC50 (CRF02_AG clone 278) [nM]	IC50 (CRF02_AG/A1 clone 280) [nM]	IC50 (pCH119 env) [nM]	further results
WEEWDKKIEEYTKKIEELIKKSQNQQ [CP]	> 500	195 ± 12	462 ± 44	181 ± 16	> 500	> 500	297 ± 22	61.2 ± 13	46 ± 3.2	26.5 ± 8.6	63.4 ± 4.6	111 ± 4.8	78.8 ± 11	51.9 ± 12	> 2000	44.4 ± 13	213 ± 14	42.3 ± 2.9	IC50 ([1]; M7 cells, 100 TCID50 virus, peptide overnight, p24 ELISA on day 4 post-infection): 281 nM; IC50 ([9]; M7 cells, 100 TCID50 virus, peptide overnight, p24 ELISA on day 4 post-infection, read-out: IC50, inhibition of HIV-1 92UG024 infection): 208 nM
WEEWDKKIEEYTKKIEELIKKSQNQQIDL [CP-IDL]	382 ± 82	10.8 ± 1.2	46.4 ± 16	8.67 ± 1.6	302 ± 34	9.79 ± 2.9	7.99 ± 3.5	6.24 ± 3.7	2.24 ± 1.3	8.61 ± 2.8	2.93 ± 1.2	2.82 ± 0.5	1.51 ± 0.4	1.21 ± 0.1	74.5 ± 12	8.59 ± 2.4	5.62 ± 1.2	5.79 ± 1.1	Activity stronger than that of T20 ([1]; 92TH009): 24 fold; Increase of potency over CP ([1]; 92TH009, ratio of IC50 to CP): 109 fold; Increase of potency over CP ([9]; 92UG024, ratio of IC50 to CP): 55 fold; Activity stronger than that of T20 ([9]; 92UG024, ratio of IC50 to T20): 12 fold

Source: article PMC5036048, “Rational improvement of gp41-targeting HIV-1 fusion inhibitors: an innovatively designed Ile-Asp-Leu tail with alternative conformations” (Scientific Reports, 2016)
